# Measurements published in the supplement of paper PMC10307832.
# Assays:
# Experiment in all cases: relative viability (nuclei count vs DMSO), 5 days (fraction); higher = more cells survive
# [1] = compound: C1COCCN1C2=NC(=NC3=C2OC4=C3C=CC=N4)C5=CC(=CC=C5)NC(=O)C6=CN=C(C=C6)N + CCNC(=O)c1noc(-c2cc(C(C)C)c(O)cc2O)c1-c1ccc(CN2CCOCC2)cc1 [Luminespib] (partner 0.01 µM)
# Method in brief: (§1)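 After 5 days of treatment, lung cancer cells in 1536-well plates were fixed and stained in a single step (final 0.05% Triton X-100, 1% formaldehyde, 1 ug/ml Hoechst) and their nuclei counted on 4× images. Treatment had been applied by pin tool the day after seeding as one drug alone or as a fixed anchor-drug dose with five library-drug doses (not always all listed) in √10 steps. Relative viability is the nuclei count of treated wells divided by that of vehicle wells, and values are medians of duplicate plates.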
# [2] = compound: C1COCCN1C2=NC(=NC3=C2OC4=C3C=CC=N4)C5=CC(=CC=C5)NC(=O)C6=CN=C(C=C6)N + C[C@@H](Oc1cc(-c2cnn(C3CCNCC3)c2)cnc1N)c1c(Cl)ccc(F)c1Cl [Crizotinib] (partner 1 µM)
# Method in brief: as §1
# [3] = compound: C1COCCN1C2=NC(=NC3=C2OC4=C3C=CC=N4)C5=CC(=CC=C5)NC(=O)C6=CN=C(C=C6)N + NC(=O)Nc1cc(-c2cccc(F)c2)sc1C(=O)N[C@H]1CCCNC1 [AZD7762] (partner 0.2 µM)
# Method in brief: as §1
# SGI-1776 + Lapatinib = compound: CN1CCC(CNc2ccc3ncc(-c4cccc(OC(F)(F)F)c4)n3n2)CC1 [SGI-1776] + CS(=O)(=O)CCNCc1ccc(-c2ccc3ncnc(Nc4ccc(OCc5cccc(F)c5)c(Cl)c4)c3c2)o1 [Lapatinib] (partner 2 µM)
# Method in brief: as §1
Cell Line,relative viability ([1]; first compound 0.02 µM),relative viability ([1]; first compound 0.06325 µM),relative viability ([1]; first compound 0.2 µM),relative viability ([1]; first compound 0.6325 µM),relative viability ([1]; first compound 2 µM),relative viability ([2]; first compound 0.02 µM),relative viability ([2]; first compound 0.06325 µM),relative viability ([2]; first compound 0.2 µM),relative viability ([2]; first compound 0.6325 µM),relative viability ([2]; first compound 2 µM),relative viability ([3]; first compound 0.02 µM),relative viability ([3]; first compound 0.06325 µM),relative viability ([3]; first compound 0.2 µM),relative viability ([3]; first compound 0.6325 µM),relative viability ([3]; first compound 2 µM),relative viability (SGI-1776 + Lapatinib; first compound 0.08 µM),relative viability (SGI-1776 + Lapatinib; first compound 0.8 µM),relative viability (SGI-1776 + Lapatinib; first compound 2.53 µM),relative viability (SGI-1776 + Lapatinib; first compound 8 µM)
NCI-H1792,0.286,0.487,0.405,0.286,0.331,1.2,0.946,1.01,0.767,0.382,0.593,0.707,0.509,0.544,0.386,0.908,0.988,0.867,0.756
NCI-H358,0.287,0.254,0.353,0.426,0.193,0.64,0.586,0.455,0.559,0.38,0.442,0.475,0.443,0.465,0.409,0.434,0.469,0.352,0.292
NCI-H1755,0.447,0.666,0.436,0.235,0.239,0.969,0.978,0.811,0.773,0.34,0.45,0.4,0.397,0.414,0.348,0.995,1.09,0.967,0.788
EPLC-272H,0.242,0.588,0.401,0.271,0.33,0.977,1.03,1.01,1.04,0.722,0.217,,0.251,0.23,0.19,1.04,0.889,1.1,0.771
